Data reported in publication PMC11302729, “Repurposing Hsp90 inhibitors as antimicrobials targeting two-component systems identifies compounds leading to loss of bacterial membrane integrity” (Microbiology Spectrum, 2024).
In brackets after ≈: the same amount, converted by molar mass. Where two headings read alike, the source gives them in different places.

Key:
[1] = tested on: Enterococcus faecium vanA (strain E1654); assay: MIC (microdilution) against E. faecium; assay type: cell-based; details: for MIC: Enterococcus faecium, read-out: MIC E. faecium; for MIC E. faecium: Table ST1
Method: (§1) Staphylococcus aureus str. Newman, Enterococcus faecalis vanA (strain E0155), Enterococcus faecium vanA (strain E1654), Escherichia coli ATCC 25922, Escherichia coli D21f2 with a truncated LPS barrier, Escherichia coli JW5503 (ΔtolC) ([49]), Pseudomonas aeruginosa ATCC 27853, and Pasteurella haemolytica ATCC 29701 were grown in Mueller-Hinton Broth (MHB) (Oxoid, Basingstoke, UK) and incubated at 37°C.
(§2) The minimal inhibitory concentration was determined using the microdilution method following the guidelines of the European Committee on Antimicrobial Susceptibility Testing ([50]). Briefly, a series of twofold dilutions in MHB of each compound were made in a 96-well plate, with final concentrations ranging from 50 to 0.39 µg/mL in 100 µL final volume per well. A hundred microliters of 1:100 dilution of an overnight culture of the correspondent bacteria in MHB was added to each well. Plates were incubated for 18 hours at 37°C. MIC was recorded as the lowest concentration where no growth was detected as measured by optical density at 600 nm (OD600) using Spectramax M5 (Molecular Devices LLC, San Jose, CA, USA). […] Wells containing bacteria with or without 1% DMSO and medium alone were included as controls in every plate.

[2] = tested on: Enterococcus faecalis vanA (strain E0155); assay: MIC (microdilution) against E. faecalis; assay type: cell-based; details: for MIC: Enterococcus faecalis, read-out: MIC E. faecalis; for MIC E. faecalis: Table ST1
Method: as §1, §2

[3] = tested on: Pasteurella haemolytica ATCC 29701; assay: MIC (microdilution) against P. haemolytica; assay type: cell-based; details: for MIC: Mannheimia haemolytica
Method: as §1, §2

[4] = tested on: Pseudomonas aeruginosa ATCC 27853; assay: MIC (microdilution) against P. aeruginosa; assay type: cell-based; details: for MIC: Pseudomonas aeruginosa; for MIC P. aeruginosa: Table ST1
Method: as §1, §2

[5] = tested on: Escherichia coli D21f2 with a truncated LPS barrier; assay: MIC (microdilution) against E. coli D21f2; assay type: cell-based
Source text: We also tested the inhibitory activity of compounds in two different E. coli mutants: (i) E. coli JW5503 that lacks TolC efflux pumps and (ii) E. coli D21f2 that has a defective LPS inner core increasing permeability of the outer membrane. E. coli D21f2 has a slightly higher susceptibility to DPP compounds than E. coli ATCC25922.
as §1, §2

[6] = target: T1, E. coli EnvZ (Escherichia coli, UniProt P0AEJ4); assay: HK autophosphorylation inhibition, EnvZ; assay type: biochemical
T1 construct: Cytoplasmic domains from S. aureus PhoR and E. coli EnvZ; His6; made in house; host or cells: E. coli RIL
Method: Cytoplasmic domains from S. aureus PhoR and E. coli EnvZ as well the CA domain of Thermotoga maritima CheA were cloned in pNIC28-Bsa4 ([54]) plasmid containing His6-tag expressed in E. coli RIL and purified as previously described ([21], [55], [56]) using His-affinity and size exclusion chromatography. Briefly, E. coli RIL strains carrying the appropriate plasmid were grown in 1 L Luria broth (LB) (Merck Millipore) supplemented with kanamycin (100 µg/mL) with shaking (200 r.p.m.) at 37°C. When OD600 reached 0.5, 1 mM isopropyl-ß-D-1-thiogalactopyranoside (IPTG) was added to induce protein expression and cells were grown for 3 more hours. Cells were harvested by centrifugation (4,000 g, 4°C), resuspended in 40 mL buffer A (50 mM Tris-HCl pH 8.0, 0.5 M NaCl, 10% glycerol, and 1 mM phenylmethanesulfonyl fluoride), sonicated (4°C, 5 min with pulses of 15 sec at intervals of 1 min), and centrifuged (11,000 g, 4°C, 60 min). Supernatant was passed through a 5-mL HisTrap HP column (GE Healthcare) equilibrated in buffer A using the AKTA system (GE Healthcare). His-column was washed with buffer A (80 mL), and a linear gradient of imidazole (range 0 to 0.25 M) in buffer A was applied. The purest fractions evaluated by SDS-PAGE were collected, concentrated by ultrafiltration in a Amicon Ultra-15 (10- or 30-kDa exclusion) (Merck Millipore), and further purified by gel filtration using Superdex 200 column (GE Healthcare), equilibrated in buffer B (50 mM TrisHCl, pH 8.0, 0.2 M NaCl, and 5% glycerol). Purified proteins were then concentrated using ultrafiltration and stored at −80°C.
Autophosphorylation inhibition assays were performed in kinase assay buffer [100 mM Tris-HCl (pH 8.0), 5 mM MgCl2, 10 mM DTT], containing 5 µg of purified HK and 10 mM ATP for 30 min at 25°C. The reaction was stopped by adding gel loading buffer containing 16% SDS before loading the reaction on a 12% SDS-PAGE. […] To detect autophosphorylation, the gel was transferred to a nitrocellulose membrane (GE Healthcare) at 100 V in the transfer buffer (25 mM Tris, 192 mM Glycine, 10% Methanol). The membrane was then blocked using Tris-buffered saline solution with 0.1% vol/vol Tween 20 (TBS-T) supplied with 5% bovine serum albumin. The phosphorylated histidine was detected by western blotting by then incubating the membrane for 60 min with 1:1,000 anti-N1-phosphohistidine antibody (Merck Millipore) in TBS-T followed by a washing step for 30 min with TBS-T and a final 60-min incubation with 1:10,000 horseradish […] anti-rabbit IgG (Promega) in TBS-T. Chemiluminescent reaction was measured using Pierce ECL immunoblotting substrate (Thermo Scientific) in a LAS 3000 image analyzer (Fujifilm Life Science, Tokyo, Japan) followed by densitometric analysis using Multi Gauge image-analysis software (Fujifilm Life Science, Tokyo, Japan). The inhibitor concentrations required to halve the chemiluminescence intensity (IC50) were determined using Prism 4.1 (GraphPad Software, San Diego, CA, USA).

[7] = ATCC29701, read-out: MIC P. haemolytica, Table 1
[8] = ATCC29701, read-out: MIC P. haemolytica, Table ST1
[9] = ATCC27853, Table 1, read-out: MIC P. aeruginosa
[10] = bound from first screening at 2 mM
[11] = ATCC27853, read-out: MIC P. aeruginosa

T1 sequence (P0AEJ4 180-450): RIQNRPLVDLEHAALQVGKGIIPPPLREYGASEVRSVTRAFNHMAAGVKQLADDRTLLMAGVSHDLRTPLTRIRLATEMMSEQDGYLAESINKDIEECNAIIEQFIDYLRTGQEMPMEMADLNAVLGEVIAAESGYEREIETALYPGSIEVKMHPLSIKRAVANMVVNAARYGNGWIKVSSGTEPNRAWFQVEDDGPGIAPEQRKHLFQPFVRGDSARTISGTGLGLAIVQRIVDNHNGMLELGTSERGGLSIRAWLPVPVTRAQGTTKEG

Structure (SMILES): CCOc1ccc(-c2[nH]nc(C(F)(F)F)c2-c2ccc(Cl)cc2)c(O)c1 [DPP-7]
- MIC [1]: 3.12 µg/mL (≈ 8.15 µM)
- MIC E. faecium [1]: 3.12 µg/mL (≈ 8.15 µM)
- MIC [2]: 3.12 µg/mL (≈ 8.15 µM)
- MIC E. faecalis [2]: 3.12 µg/mL (≈ 8.15 µM)
- MIC [3, 7]: 25 µg/mL (≈ 65.3 µM)
- MIC [3, 8]: 25 µg/mL (≈ 65.3 µM)
- MIC [4, 9]: > 250 µg/mL
- MIC P. aeruginosa [4]: >250 µg/mL
- MIC ([5]; read-out: MIC E coli D21f2): 25 µg/mL (≈ 65.3 µM)
- MIC ([5]; read-out: MIC E. coli D21f2): 25 µg/mL (≈ 65.3 µM)
- IC50 [6, 10]: < 2000 µM

Structure (SMILES): COc1ccc(-c2c(C(F)(F)F)n[nH]c2-c2ccc(O)cc2O)cc1 [DPP-12]
- MIC [1]: 50 µg/mL (≈ 143 µM)
- MIC E. faecium [1]: 50 µg/mL (≈ 143 µM)
- MIC [2]: 50 µg/mL (≈ 143 µM)
- MIC E. faecalis [2]: 50 µg/mL (≈ 143 µM)
- MIC [3, 7]: 50 µg/mL (≈ 143 µM)
- MIC [3, 8]: 62.5 µg/mL (≈ 178 µM)
- MIC [4, 11]: > 250 µg/mL
- MIC P. aeruginosa [4]: >250 µg/mL
- MIC ([5]; read-out: MIC E coli D21f2): > 50 µg/mL
- MIC ([5]; read-out: MIC E. coli D21f2): > 250 µg/mL
- IC50 ([6]; ± SD, n = 2, 10 mM ATP): 427 ± 9.1 µM

Structure (SMILES): COc1ccc(-c2c(C(F)(F)F)n[nH]c2-c2ccc(OC)cc2O)cc1 [DPP-13]
- MIC [1]: 25 µg/mL (≈ 68.6 µM)
- MIC E. faecium [1]: 25 µg/mL (≈ 68.6 µM)
- MIC [2]: 25 µg/mL (≈ 68.6 µM)
- MIC E. faecalis [2]: 25 µg/mL (≈ 68.6 µM)
- MIC [3, 7]: > 250 µg/mL
- MIC [3, 8]: > 250 µg/mL
- MIC [4, 11]: > 250 µg/mL
- MIC P. aeruginosa [4]: >250 µg/mL
- MIC ([5]; read-out: MIC E coli D21f2): > 50 µg/mL
- MIC ([5]; read-out: MIC E. coli D21f2): > 250 µg/mL
- IC50 ([6]; ± SD, n = 2, 10 mM ATP): 175 ± 10.1 µM

Structure (SMILES): Oc1ccc(-c2n[nH]c(C(F)(F)F)c2-c2ccc(Cl)cc2)c(O)c1 [DPP-5]
- MIC [1]: 12.5 µg/mL (≈ 35.2 µM)
- MIC E. faecium [1]: 12.5 µg/mL (≈ 35.2 µM)
- MIC [2]: 12.5 µg/mL (≈ 35.2 µM)
- MIC E. faecalis [2]: 12.5 µg/mL (≈ 35.2 µM)
- MIC ([3]; ATCC29701, Table 1, read-out: MIC P. haemolytica): 12.5 µg/mL (≈ 35.2 µM)
- MIC P. haemolytica ([3]; Table ST1): 12.5 µg/mL (≈ 35.2 µM)
- MIC [4, 9]: > 250 µg/mL
- MIC P. aeruginosa [4]: >250 µg/mL
- MIC ([5]; read-out: MIC E coli D21f2): 50 µg/mL (≈ 141 µM)
- MIC ([5]; read-out: MIC E. coli D21f2): 50 µg/mL (≈ 141 µM)
- IC50 ([6]; ± SD, n = 2, 10 mM ATP): 117 ± 6.3 µM

Structure (SMILES): COc1ccc(-c2[nH]nc(C(F)(F)F)c2-c2ccc(Cl)cc2)c(O)c1 [DPP-6]
- MIC [1]: 6.25 µg/mL (≈ 16.9 µM)
- MIC E. faecium [1]: 6.25 µg/mL (≈ 16.9 µM)
- MIC [2]: 6.25 µg/mL (≈ 16.9 µM)
- MIC E. faecalis [2]: 6.25 µg/mL (≈ 16.9 µM)
- MIC [3, 7]: 12.5 µg/mL (≈ 33.9 µM)
- MIC [3, 8]: 12.5 µg/mL (≈ 33.9 µM)
- MIC [4, 9]: > 250 µg/mL
- MIC P. aeruginosa [4]: >250 µg/mL
- MIC ([5]; read-out: MIC E coli D21f2): 25 µg/mL (≈ 67.8 µM)
- MIC ([5]; read-out: MIC E. coli D21f2): 25 µg/mL (≈ 67.8 µM)
- IC50 ([6]; ± SD, n = 2, 10 mM ATP): 98 ± 11.8 µM

Structure (SMILES): COc1ccc(-c2[nH]nc(C(F)(F)F)c2-c2ccccc2)c(O)c1 [DPP-2]
- MIC [1]: 25 µg/mL (≈ 74.8 µM)
- MIC E. faecium [1]: 25 µg/mL (≈ 74.8 µM)
- MIC [2]: 25 µg/mL (≈ 74.8 µM)
- MIC E. faecalis [2]: 25 µg/mL (≈ 74.8 µM)
- MIC [3, 7]: 50 µg/mL (≈ 150 µM)
- MIC [3, 8]: 50 µg/mL (≈ 150 µM)
- MIC [4, 9]: > 250 µg/mL
- MIC P. aeruginosa [4]: >250 µg/mL
- MIC ([5]; read-out: MIC E coli D21f2): 50 µg/mL (≈ 150 µM)
- MIC ([5]; read-out: MIC E. coli D21f2): 50 µg/mL (≈ 150 µM)
- IC50 [6, 10]: < 2000 µM
